The numbers were not newly measured in patent US11214548B2, “Cannabinoid receptor modulators” (priority 2009, dated 2022), which cites them from elsewhere.

Each structure is given as a SMILES string. Read-outs that look alike come from different tables or passages of the source.

Series [1] relates to capsaicin-induced coughs. The note with it: guinea pigs; cited from earlier work.
The next series deals with acute and chronic pain. The note with it: animal studies; cited from earlier work.
In series [2] the test system is capsaicin-induced coughs. The note with it: mice; cited from earlier work.
Series [3] relates to bovine nasal cartilage explants. The note with it: bovine nasal cartilage explants in vitro; cited from earlier work.
A further series concerns EAU. The note with it: EAU model in mice; cited from earlier work.
A further series has as its system EAE. The note with it: EAE mouse model; cited from earlier work.

Turning to `CCCCC/C=C\C/C=C\C/C=C\C/C=C\CCCC(=O)NCCO` [anandamide], the “number of capsaicin-induced coughs” value in the series on capsaicin-induced coughs [1] is reported as “dose-dependent inhibition”. For the same compound, the “effect against acute and chronic pain from chemical, mechanical, and thermal pain stimuli” value in the series with acute and chronic pain is recorded as “effective”.
As to `Cc1c(C(=O)c2cccc3ccccc23)c2cccc3c2n1[C@H](CN1CCOCC1)CO3` [WIN 55212-2], the “number of capsaicin-induced coughs” value in the series on capsaicin-induced coughs [2] is “dose-dependent inhibition”. Moreover, the “IL-1alpha-stimulated proteoglycan and collagen degradation” value in series [3] was “significantly inhibit”. Moreover, in the series on EAU, the neuroprotection entry is reported as “significant neuroprotection”. Further, the “leukocyte rolling and adhesion in the brain” value in the series on EAE is recorded as “significantly inhibits”. In the series on acute and chronic pain, the “effect against acute and chronic pain from chemical, mechanical, and thermal pain stimuli” value is on record as “effective”.
